Experimental data as given in PubChem BioAssay (NCI).
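Each compound was tested at five concentrations against cells in 96-well plates for 48 hours. TGI denotes the concentration required for complete inhibition of growth.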

Columns and labels:
Test in all cases: NCI anticancer screen, dose series, 48 h
DLD-1 colon = system: DLD-1 colon
IGROV1 ovarian = system: IGROV1 ovarian
CAKI-1 renal = system: CAKI-1 renal
HT29 colon = system: HT29 colon
TK-10 renal = system: TK-10 renal
HOP-92 NSCLC = system: HOP-92 NSCLC
COLO 205 colon = system: COLO 205 colon
786-0 renal = system: 786-0 renal
HCT-116 colon = system: HCT-116 colon
UACC-257 melanoma = system: UACC-257 melanoma
UO-31 renal = system: UO-31 renal
SW-620 colon = system: SW-620 colon
M19-MEL melanoma = system: M19-MEL melanoma
DMS 114 small cell lung = system: DMS 114 small cell lung
HOP-62 NSCLC = system: HOP-62 NSCLC
OVCAR-5 ovarian = system: OVCAR-5 ovarian
SR leukemia = system: SR leukemia
OVCAR-4 ovarian = system: OVCAR-4 ovarian
EKVX NSCLC = system: EKVX NSCLC
OVCAR-3 ovarian = system: OVCAR-3 ovarian
NCI-H522 lung = system: NCI-H522 lung
LXFL 529 NSCLC = system: LXFL 529 NSCLC
M14 melanoma = system: M14 melanoma
SK-OV-3 ovarian = system: SK-OV-3 ovarian
RPMI-8226 leukemia = system: RPMI-8226 leukemia
OVCAR-8 ovarian = system: OVCAR-8 ovarian
MOLT-4 leukemia = system: MOLT-4 leukemia
A549 NSCLC = system: A549 NSCLC
KM12 colon = system: KM12 colon
UACC-62 melanoma = system: UACC-62 melanoma
HL-60(TB) leukemia = system: HL-60(TB) leukemia
ACHN renal = system: ACHN renal
K-562 leukemia = system: K-562 leukemia
NCI-H460 lung = system: NCI-H460 lung
SF-268 CNS = system: SF-268 CNS
SN12C renal = system: SN12C renal
XF 498 CNS = system: XF 498 CNS
NCI-H23 lung = system: NCI-H23 lung
SNB-19 CNS = system: SNB-19 CNS
U251 CNS = system: U251 CNS
NCI-H226 lung = system: NCI-H226 lung
SF-295 CNS = system: SF-295 CNS
SK-MEL-28 melanoma = system: SK-MEL-28 melanoma
SK-MEL-2 melanoma = system: SK-MEL-2 melanoma
A498 renal = system: A498 renal
SNB-75 CNS = system: SNB-75 CNS
MALME-3M melanoma = system: MALME-3M melanoma
CCRF-CEM leukemia = system: CCRF-CEM leukemia
SNB-78 CNS = system: SNB-78 CNS
RXF 393 renal = system: RXF 393 renal
SF-539 CNS = system: SF-539 CNS
DMS 273 small cell lung = system: DMS 273 small cell lung
HOP-18 NSCLC = system: HOP-18 NSCLC
HCT-15 colon = system: HCT-15 colon
HCC-2998 colon = system: HCC-2998 colon
SK-MEL-5 melanoma = system: SK-MEL-5 melanoma
KM20L2 colon = system: KM20L2 colon
LOX IMVI melanoma = system: LOX IMVI melanoma

## COc1ccc(CC2(Cc3ccc(OC)cc3)CCOC2=O)cc1
DLD-1 colon
  TGI: > 100 µM
IGROV1 ovarian
  TGI: > 100 µM
CAKI-1 renal
  TGI: > 100 µM
HT29 colon
  TGI: > 100 µM
TK-10 renal
  TGI: > 100 µM
HOP-92 NSCLC
  TGI: > 100 µM
COLO 205 colon
  TGI: > 100 µM
786-0 renal
  TGI: > 100 µM
HCT-116 colon
  TGI: > 100 µM
UACC-257 melanoma
  TGI: > 100 µM
UO-31 renal
  TGI: > 100 µM
SW-620 colon
  TGI: > 100 µM
M19-MEL melanoma
  TGI: > 100 µM
DMS 114 small cell lung
  TGI: > 100 µM
HOP-62 NSCLC
  TGI: > 100 µM
OVCAR-5 ovarian
  TGI: > 100 µM
SR leukemia
  TGI: > 100 µM
OVCAR-4 ovarian
  TGI: > 100 µM
EKVX NSCLC
  TGI: > 100 µM
OVCAR-3 ovarian
  TGI: > 100 µM
NCI-H522 lung
  TGI: > 100 µM
LXFL 529 NSCLC
  TGI: > 100 µM
M14 melanoma
  TGI: > 100 µM
SK-OV-3 ovarian
  TGI: > 100 µM
RPMI-8226 leukemia
  TGI: > 100 µM
OVCAR-8 ovarian
  TGI: > 100 µM
MOLT-4 leukemia
  TGI: > 100 µM
A549 NSCLC
  TGI: > 100 µM
KM12 colon
  TGI: > 100 µM
UACC-62 melanoma
  TGI: > 100 µM
HL-60(TB) leukemia
  TGI: > 100 µM
ACHN renal
  TGI: > 100 µM
K-562 leukemia
  TGI: > 100 µM
NCI-H460 lung
  TGI: > 100 µM
SF-268 CNS
  TGI: > 100 µM
SN12C renal
  TGI: > 100 µM
XF 498 CNS
  TGI: 26.1 µM
NCI-H23 lung
  TGI: > 100 µM
SNB-19 CNS
  TGI: > 100 µM
U251 CNS
  TGI: > 100 µM
NCI-H226 lung
  TGI: > 100 µM
SF-295 CNS
  TGI: > 100 µM
SK-MEL-28 melanoma
  TGI: > 100 µM
SK-MEL-2 melanoma
  TGI: > 100 µM
A498 renal
  TGI: > 100 µM
SNB-75 CNS
  TGI: 48.9 µM
MALME-3M melanoma
  TGI: > 100 µM
CCRF-CEM leukemia
  TGI: > 100 µM

## O=C1c2ccccc2N2Oc3ccccc3C12c1ccccc1 (configuration not stated)
IGROV1 ovarian
  TGI: > 100 µM
HT29 colon
  TGI: > 100 µM
SNB-78 CNS
  TGI: > 100 µM
HOP-92 NSCLC
  TGI: > 100 µM
RXF 393 renal
  TGI: > 100 µM
COLO 205 colon
  TGI: > 100 µM
786-0 renal
  TGI: > 100 µM
HCT-116 colon
  TGI: > 100 µM
UACC-257 melanoma
  TGI: > 100 µM
UO-31 renal
  TGI: > 100 µM
SW-620 colon
  TGI: > 100 µM
M19-MEL melanoma
  TGI: > 100 µM
DMS 114 small cell lung
  TGI: > 100 µM
HOP-62 NSCLC
  TGI: > 100 µM
SR leukemia
  TGI: > 100 µM
SF-539 CNS
  TGI: > 100 µM
OVCAR-4 ovarian
  TGI: > 100 µM
EKVX NSCLC
  TGI: > 100 µM
NCI-H522 lung
  TGI: > 100 µM
LXFL 529 NSCLC
  TGI: > 100 µM
M14 melanoma
  TGI: > 100 µM
DMS 273 small cell lung
  TGI: > 100 µM
SK-OV-3 ovarian
  TGI: > 100 µM
HOP-18 NSCLC
  TGI: > 100 µM
RPMI-8226 leukemia
  TGI: > 100 µM
OVCAR-8 ovarian
  TGI: > 100 µM
MOLT-4 leukemia
  TGI: > 100 µM
A549 NSCLC
  TGI: > 100 µM
UACC-62 melanoma
  TGI: > 100 µM
HCT-15 colon
  TGI: > 100 µM
HCC-2998 colon
  TGI: > 100 µM
SK-MEL-5 melanoma
  TGI: > 100 µM
HL-60(TB) leukemia
  TGI: > 100 µM
ACHN renal
  TGI: > 100 µM
K-562 leukemia
  TGI: > 100 µM
SF-268 CNS
  TGI: > 100 µM
SN12C renal
  TGI: > 100 µM
NCI-H23 lung
  TGI: > 100 µM
SNB-19 CNS
  TGI: > 100 µM
KM20L2 colon
  TGI: > 100 µM
U251 CNS
  TGI: > 100 µM
NCI-H226 lung
  TGI: > 100 µM
SF-295 CNS
  TGI: > 100 µM
SK-MEL-28 melanoma
  TGI: > 100 µM
A498 renal
  TGI: > 100 µM
SNB-75 CNS
  TGI: > 100 µM
MALME-3M melanoma
  TGI: > 100 µM
CCRF-CEM leukemia
  TGI: > 100 µM

## CC(Oc1ccc(OCC2CCCCC2)cc1)C(=O)NCc1ccco1 (configuration not stated)
DLD-1 colon
  TGI: > 100 µM
IGROV1 ovarian
  TGI: > 100 µM
HT29 colon
  TGI: 46.6 µM
TK-10 renal
  TGI: > 100 µM
SNB-78 CNS
  TGI: > 100 µM
RXF 393 renal
  TGI: 71.4 µM
786-0 renal
  TGI: > 100 µM
HCT-116 colon
  TGI: 76.3 µM
UACC-257 melanoma
  TGI: 70.4 µM
UO-31 renal
  TGI: 92.3 µM
M19-MEL melanoma
  TGI: > 100 µM
DMS 114 small cell lung
  TGI: 56.6 µM
SF-539 CNS
  TGI: 88.1 µM
OVCAR-4 ovarian
  TGI: > 100 µM
OVCAR-3 ovarian
  TGI: > 100 µM
NCI-H522 lung
  TGI: 35.3 µM
LXFL 529 NSCLC
  TGI: > 100 µM
M14 melanoma
  TGI: 42.6 µM
DMS 273 small cell lung
  TGI: 94.1 µM
SK-OV-3 ovarian
  TGI: > 100 µM
LOX IMVI melanoma
  TGI: 54.3 µM
HOP-18 NSCLC
  TGI: > 100 µM
OVCAR-8 ovarian
  TGI: > 100 µM
MOLT-4 leukemia
  TGI: > 100 µM
A549 NSCLC
  TGI: > 100 µM
KM12 colon
  TGI: > 100 µM
UACC-62 melanoma
  TGI: > 100 µM
HCT-15 colon
  TGI: > 100 µM
HCC-2998 colon
  TGI: > 100 µM
SK-MEL-5 melanoma
  TGI: 31.4 µM
HL-60(TB) leukemia
  TGI: > 100 µM
ACHN renal
  TGI: > 100 µM
K-562 leukemia
  TGI: > 100 µM
NCI-H460 lung
  TGI: > 100 µM
SF-268 CNS
  TGI: > 100 µM
SN12C renal
  TGI: > 100 µM
XF 498 CNS
  TGI: > 100 µM
SNB-19 CNS
  TGI: > 100 µM
U251 CNS
  TGI: > 100 µM
NCI-H226 lung
  TGI: 94 µM
SK-MEL-28 melanoma
  TGI: > 100 µM
SK-MEL-2 melanoma
  TGI: 59.3 µM
A498 renal
  TGI: 86.7 µM
SNB-75 CNS
  TGI: > 100 µM
MALME-3M melanoma
  TGI: 58.7 µM
CCRF-CEM leukemia
  TGI: > 100 µM
